Data as given in ChEMBL document CHEMBL4033735, “A potent and selective natriuretic peptide receptor-3 blocker 11-mer peptide created by hybridization of musclin and atrial natriuretic peptide” (Bioorg Med Chem Lett, 2017).
Bridge positions count the residues as written; N and C are the ends. Square brackets hold non-standard residues; d marks the D form. Peptide text beside a SMILES is read from it. Cha = N[C@@H](CC1CCCCC1)C(=O)O

How the values were obtained:
[1] = biological target: T1, Atrial natriuretic peptide receptor 3 (Homo sapiens, UniProt P17342); test: Displacement of [125I]-human ANP from His-tagged and Fc fragment containing human NPR-3 extracellular domain expressed in FreeStyle 293 cells incubated for 2 hrs by top count method; assay type: cell-based
T1 sequence (P17342 whole entry): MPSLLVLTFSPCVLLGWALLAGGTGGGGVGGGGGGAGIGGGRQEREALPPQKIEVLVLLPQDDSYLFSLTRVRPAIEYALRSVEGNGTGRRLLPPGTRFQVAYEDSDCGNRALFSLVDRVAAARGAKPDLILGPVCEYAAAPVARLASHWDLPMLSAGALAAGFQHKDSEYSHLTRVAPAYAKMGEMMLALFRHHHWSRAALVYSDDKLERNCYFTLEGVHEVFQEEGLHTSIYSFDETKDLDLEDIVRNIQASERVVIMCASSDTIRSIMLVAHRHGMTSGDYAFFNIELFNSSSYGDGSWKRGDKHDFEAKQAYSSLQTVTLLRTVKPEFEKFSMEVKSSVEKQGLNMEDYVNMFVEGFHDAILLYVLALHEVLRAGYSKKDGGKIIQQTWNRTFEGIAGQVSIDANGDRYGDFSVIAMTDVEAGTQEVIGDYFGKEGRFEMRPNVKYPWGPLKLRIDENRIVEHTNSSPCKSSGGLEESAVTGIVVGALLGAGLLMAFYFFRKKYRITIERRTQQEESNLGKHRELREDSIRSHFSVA

[2] = Stability in C57BL/6J mouse serum assessed as residual parent compound remaining at 1 mM after 60 mins at 37 degC by HPLC method; assay type: ADME, cell-free; details: read-out: Stability
[3] = biological target: T2, Atrial natriuretic peptide receptor 1 (Homo sapiens, UniProt P16066); test: Displacement of [125I]-human ANP from human NPR-1 incubated for 2 hrs by top count method
T2 sequence (P16066 whole entry): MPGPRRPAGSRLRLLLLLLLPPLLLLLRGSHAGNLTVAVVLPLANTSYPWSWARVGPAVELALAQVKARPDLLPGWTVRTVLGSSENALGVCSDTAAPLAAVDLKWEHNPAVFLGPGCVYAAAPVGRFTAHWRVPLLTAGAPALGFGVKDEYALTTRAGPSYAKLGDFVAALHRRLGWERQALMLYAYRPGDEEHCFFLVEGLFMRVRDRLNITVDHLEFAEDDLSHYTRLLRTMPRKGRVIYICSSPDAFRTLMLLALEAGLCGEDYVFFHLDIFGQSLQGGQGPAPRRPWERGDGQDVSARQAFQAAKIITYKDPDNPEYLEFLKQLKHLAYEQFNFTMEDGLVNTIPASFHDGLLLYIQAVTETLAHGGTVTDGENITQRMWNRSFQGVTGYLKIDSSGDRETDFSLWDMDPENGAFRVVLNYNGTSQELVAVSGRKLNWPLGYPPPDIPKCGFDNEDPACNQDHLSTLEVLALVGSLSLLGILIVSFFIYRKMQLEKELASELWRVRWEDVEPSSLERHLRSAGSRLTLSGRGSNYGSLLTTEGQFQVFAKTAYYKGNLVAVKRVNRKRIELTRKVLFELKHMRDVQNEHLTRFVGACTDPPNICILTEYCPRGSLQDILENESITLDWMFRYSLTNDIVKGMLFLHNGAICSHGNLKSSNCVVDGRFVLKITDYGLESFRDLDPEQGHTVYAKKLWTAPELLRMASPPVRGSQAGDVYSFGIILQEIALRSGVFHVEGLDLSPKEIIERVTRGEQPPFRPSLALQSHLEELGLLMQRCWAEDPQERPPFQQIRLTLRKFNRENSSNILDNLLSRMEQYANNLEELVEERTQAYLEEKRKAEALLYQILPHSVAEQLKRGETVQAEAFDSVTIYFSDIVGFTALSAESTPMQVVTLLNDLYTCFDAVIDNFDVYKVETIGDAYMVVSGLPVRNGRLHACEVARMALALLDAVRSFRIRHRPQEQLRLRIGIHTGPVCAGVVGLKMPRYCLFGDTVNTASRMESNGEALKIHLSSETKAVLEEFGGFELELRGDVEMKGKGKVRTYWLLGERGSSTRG

[4] = Stability in C57BL/6J mouse serum assessed as residual parent compound remaining at 1 mM after 30 mins at 37 degC by HPLC method; assay type: ADME, cell-free; details: read-out: Stability
[5] = Stability in C57BL/6J mouse serum assessed as residual parent compound remaining at 1 mM after 4 hrs at 37 degC by HPLC method; assay type: ADME, cell-free; details: read-out: Stability
[6] = Stability in C57BL/6J mouse serum assessed as residual parent compound remaining at 1 mM after 2 hrs at 37 degC by HPLC method; assay type: ADME, cell-free; details: read-out: Stability
[7] = Drug level in mouse blood at 1000 nmol/kg/day dosed as continuous administration for 3 days; assay type: ADME, organism-based; details: whole blood, read-out: Drug uptake
[8] = Stability in 10% C57BL/6J mouse serum/phosphate-buffered saline assessed as residual parent compound remaining at 1 mM after 30 mins at 37 degC by HPLC method; assay type: ADME, cell-free; details: 10% mouse serum in phosphate-buffered saline, read-out: Stability
[9] = Stability in 10% C57BL/6J mouse serum/phosphate-buffered saline assessed as residual parent compound remaining at 1 mM after 60 mins at 37 degC by HPLC method; assay type: ADME, cell-free; details: 10% mouse serum in phosphate-buffered saline, read-out: Stability

Row | remaining at 1 h, 1000 µM [2] | remaining at 0.5 h, 1000 µM [4] | remaining at 4 h, 1000 µM [5] | remaining at 2 h, 1000 µM [6] | concentration at 72 h [7] | SMILES | IC50 [1] | IC50 [3] | remaining at 0.5 h, 1000 µM [8] | remaining at 1 h, 1000 µM [9]
1 | 68% | 81% |  |  |  | CC[C@H](C)[C@H](NC(=O)[C@H](CCCNC(=N)N)NC(=O)[C@H](CC(=O)O)NC(=O)[C@@H](NC(=O)[C@@H]1CCCN1C(=O)CNC(=O)[C@@H](C)NC(=O)[C@H](CC1CCCCC1)NC(=O)[C@H]1CCCN1C(=O)[C@H](CO)NC(=O)[C@@H](Cc1ccccc1)NC(C)=O)[C@@H](C)CC)C(N)=O | 0.054 nM | > 1000 nM |  | 
2 | 74% | 86% |  |  |  | CC[C@H](C)[C@H](NC(=O)[C@H](CCCNC(=N)N)NC(=O)[C@H](CC(=O)O)NC(=O)[C@@H](NC(=O)[C@@H]1CCCN1C(=O)CNC(=O)[C@@H](C)NC(=O)[C@H](CC1CCCCC1)NC(=O)[C@H]1CCCN1C(=O)[C@H](CO)NC(=O)[C@@H](Cc1ccccc1)NC(C)=O)[C@@H](C)CC)C(=O)NC | 0.087 nM | > 1000 nM |  | 
3 | 84% | 91% | 62% | 77% | 13.7 nM | CC[C@H](C)[C@H](NC(=O)[C@H](CCCNC(=N)NC)NC(=O)[C@H](CC(=O)O)NC(=O)[C@@H](NC(=O)[C@@H]1CCCN1C(=O)CNC(=O)[C@@H](C)NC(=O)[C@H](CC1CCCCC1)NC(=O)[C@H]1CCCN1C(=O)[C@H](CO)NC(=O)[C@@H](Cc1ccccc1)NC(C)=O)[C@@H](C)CC)C(=O)NC | 0.14 nM | > 1000 nM |  | 
4 |  |  |  |  |  | CC[C@H](C)[C@@H]1NC(=O)[C@H](CCCNC(=N)N)NC(=O)[C@H](CC(=O)O)NC(=O)[C@H]([C@@H](C)CC)NC(=O)[C@H](CCCNC(=N)N)NC(=O)CNC(=O)CNC(=O)[C@H](Cc2ccccc2)NC(=O)[C@@H](NC(=O)[C@H](CO)NC(=O)[C@H](CO)NC(=O)[C@@H](N)CCCNC(=N)N)CSSC[C@@H](C(=O)O)NC(=O)[C@H](C)NC(=O)CNC1=O (H-RSSCFGGRIDRIGAC-OH; disulfide 4-15) | 0.51 nM | > 1000 nM | 4% | 2%
5 |  |  |  |  |  | CC[C@H](C)[C@H](NC(=O)[C@H](CCCNC(=N)N)NC(=O)[C@H](CC(=O)O)NC(=O)[C@@H](NC(=O)[C@H](CCCNC(=N)N)NC(=O)CNC(=O)CNC(=O)[C@H](CC1CCCCC1)NC(=O)CNC(=O)[C@H](CO)NC(=O)[C@H](Cc1ccccc1)NC(=O)[C@H](CO)NC(=O)[C@@H](N)CCCNC(=N)N)[C@@H](C)CC)C(=O)NCC(N)=O (H-RSFSG[Cha]GGRIDRIG-NH2) | 0.3 nM | > 1000 nM | 5% | 0%
6 |  |  |  |  |  | CC[C@H](C)[C@H](NC(=O)[C@H](CCCNC(=N)N)NC(=O)[C@H](CC(=O)O)NC(=O)[C@@H](NC(=O)[C@H](CCCNC(=N)N)NC(=O)CNC(=O)CNC(=O)[C@H](CC1CCCCC1)NC(=O)CNC(=O)[C@H](CO)NC(=O)[C@@H](N)Cc1ccccc1)[C@@H](C)CC)C(=O)NCC(N)=O | 1.2 nM | > 1000 nM | 1.4% | 0%
